Measurements as given in ChEMBL document CHEMBL5634162, “Cyclohexylalanine-Containing α-Helical Amphipathic Peptide Targets Cardiolipin, Rescuing Mitochondrial Dysfunction in Kidney Injury” (J Med Chem, 2024).
Where a SMILES comes first, the peptide text is derived from it. Bridges are numbered along the chain shown (N, C = ends). Roman numbers before positions name the chains, in order. [ ]: non-standard residue; d: D form. The star is where a group is joined. 5TAMRA = CN(C)c1ccc2c(c1)Oc1cc(N(C)C)ccc1C21OC(=O)c2cc(C(=O)*)ccc21; Cha = N[C@@H](CC1CCCCC1)C(=O)O

Assay: Drug localization in mitochondria of human HeLa cells at EC50 incubated for 3 hrs by fluorescence based assay
Format: ADME

Compound	Drug uptake
CC(=O)N[C@@H](CC1CCCCC1)C(=O)N[C@H]1CSSC[C@@H](C(=O)N[C@@H](CCCNC(=N)N)C(N)=O)NC(=O)[C@H](CC2CCCCC2)NC(=O)[C@H](CCCNC(=N)N)NC(=O)[C@H](CCCNC(=N)N)NC(=O)[C@H](CC(C)C)NC(=O)[C@H](CC(C)C)NC(=O)[C@H](CCCNC(=N)N)NC(=O)[C@@H](NC(=O)[C@H](CC2CCCCC2)NC(=O)c2ccc3c(c2)C(=O)OC32c3ccc(N(C)C)cc3Oc3cc(N(C)C)ccc32)CSSC[C@@H](C(=O)N[C@@H](CCCNC(=N)N)C(N)=O)NC(=O)[C@H](CC2CCCCC2)NC(=O)[C@H](CCCNC(=N)N)NC(=O)[C@H](CCCNC(=N)N)NC(=O)[C@H](CC(C)C)NC(=O)[C@H](CC(C)C)NC(=O)[C@H](CCCNC(=N)N)NC1=O (I: Ac-[Cha]CRLLRR[Cha]CR-NH2 / II: 5TAMRA-[Cha]CRLLRR[Cha]CR-NH2; disulfide I:2-II:9, I:9-II:2)	53%
CC(=O)N[C@@H](CC1CCCCC1)C(=O)N[C@H]1CSSC[C@@H](C(=O)N[C@@H](CCCNC(=N)N)C(N)=O)NC(=O)[C@H](CC(C)C)NC(=O)[C@H](CCCNC(=N)N)NC(=O)[C@H](CCCNC(=N)N)NC(=O)[C@H](CC2CCCCC2)NC(=O)[C@H](CC(C)C)NC(=O)[C@H](CCCNC(=N)N)NC(=O)[C@@H](NC(=O)[C@H](CC2CCCCC2)NC(=O)c2ccc3c(c2)C(=O)OC32c3ccc(N(C)C)cc3Oc3cc(N(C)C)ccc32)CSSC[C@@H](C(=O)N[C@@H](CCCNC(=N)N)C(N)=O)NC(=O)[C@H](CC(C)C)NC(=O)[C@H](CCCNC(=N)N)NC(=O)[C@H](CCCNC(=N)N)NC(=O)[C@H](CC2CCCCC2)NC(=O)[C@H](CC(C)C)NC(=O)[C@H](CCCNC(=N)N)NC1=O (I: Ac-[Cha]CRL[Cha]RRLCR-NH2 / II: 5TAMRA-[Cha]CRL[Cha]RRLCR-NH2; disulfide I:2-II:9, I:9-II:2)	53%
CC(=O)N[C@@H](CC1CCCCC1)C(=O)N[C@H]1CSSC[C@@H](C(=O)N[C@@H](CCCNC(=N)N)C(N)=O)NC(=O)[C@H](CC(C)C)NC(=O)[C@H](CCCNC(=N)N)NC(=O)[C@H](CCCNC(=N)N)NC(=O)[C@H](CC(C)C)NC(=O)[C@H](CC2CCCCC2)NC(=O)[C@H](CCCNC(=N)N)NC(=O)[C@@H](NC(=O)[C@H](CC2CCCCC2)NC(=O)c2ccc3c(c2)C(=O)OC32c3ccc(N(C)C)cc3Oc3cc(N(C)C)ccc32)CSSC[C@@H](C(=O)N[C@@H](CCCNC(=N)N)C(N)=O)NC(=O)[C@H](CC(C)C)NC(=O)[C@H](CCCNC(=N)N)NC(=O)[C@H](CCCNC(=N)N)NC(=O)[C@H](CC(C)C)NC(=O)[C@H](CC2CCCCC2)NC(=O)[C@H](CCCNC(=N)N)NC1=O (I: Ac-[Cha]CR[Cha]LRRLCR-NH2 / II: 5TAMRA-[Cha]CR[Cha]LRRLCR-NH2; disulfide I:2-II:9, I:9-II:2)	53%
CC(=O)N[C@@H](CC1CCCCC1)C(=O)N[C@H]1CSSC[C@@H](C(=O)N[C@@H](CCCNC(=N)N)C(N)=O)NC(=O)[C@H](CC2CCCCC2)NC(=O)[C@H](CCCNC(=N)N)NC(=O)[C@H](CCCNC(=N)N)NC(=O)[C@H](CC(C)C)NC(=O)[C@H](CC2CCCCC2)NC(=O)[C@H](CCCNC(=N)N)NC(=O)[C@@H](NC(=O)[C@H](CC2CCCCC2)NC(=O)c2ccc3c(c2)C(=O)OC32c3ccc(N(C)C)cc3Oc3cc(N(C)C)ccc32)CSSC[C@@H](C(=O)N[C@@H](CCCNC(=N)N)C(N)=O)NC(=O)[C@H](CC2CCCCC2)NC(=O)[C@H](CCCNC(=N)N)NC(=O)[C@H](CCCNC(=N)N)NC(=O)[C@H](CC(C)C)NC(=O)[C@H](CC2CCCCC2)NC(=O)[C@H](CCCNC(=N)N)NC1=O (I: Ac-[Cha]CR[Cha]LRR[Cha]CR-NH2 / II: 5TAMRA-[Cha]CR[Cha]LRR[Cha]CR-NH2; disulfide I:2-II:9, I:9-II:2)	53%
